For assay [1], the target named is T1, cytoplasmic domain of the human CSF-1R (Homo sapiens, UniProt P07333).
T1 construct: Recombinant protein corresponding to the cytoplasmic domain of the human CSF-1R; purchased Invitrogen Corporation, Carlsbad, Calif; PV3249
T1 sequence (P07333 539-972 limits assumed): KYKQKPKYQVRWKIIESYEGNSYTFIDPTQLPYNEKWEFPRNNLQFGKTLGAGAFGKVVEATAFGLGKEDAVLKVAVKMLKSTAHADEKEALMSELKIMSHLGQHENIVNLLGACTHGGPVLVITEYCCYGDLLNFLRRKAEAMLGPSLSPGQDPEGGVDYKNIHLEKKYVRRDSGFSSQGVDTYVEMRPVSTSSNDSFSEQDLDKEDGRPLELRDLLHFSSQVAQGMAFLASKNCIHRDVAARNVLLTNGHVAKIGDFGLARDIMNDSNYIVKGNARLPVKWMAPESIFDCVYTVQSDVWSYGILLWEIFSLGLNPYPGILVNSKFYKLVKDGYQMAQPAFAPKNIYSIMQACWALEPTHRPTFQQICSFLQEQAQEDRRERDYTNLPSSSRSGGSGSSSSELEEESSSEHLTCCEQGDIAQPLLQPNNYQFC
Description: In vitro kinase assay for CSF-1R (AlphaScreen). To be noted: tested at about 1 μM; read-out: CSF1RK 1 percent inhibition. It counts as biochemical. In outline:
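Recombinant CSF-1R cytoplasmic domain (4 nM) phosphorylated biotinylated peptide (0.05 μM) at 1.0 μM ATP in HEPES with Mg2+/Mn2+, 2 h at room temperature, compounds from 25 μM in 3-fold steps. AlphaScreen anti-phosphotyrosine PT66 detection; IC50 by non-linear regression.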
(In Alpha technology, singlet oxygen from a donor bead excites a nearby acceptor bead.)

The next assay has as its target T2, cKIT (Homo sapiens, UniProt P10721).
T2 construct: The kinase domain of cKIT was assayed in 50 mM Hepes; purchased Upstate 14-559
Description: cKIT kinase in vitro biochemical assay (alphascreen). The note with it: tested at about 1 μM; read-out: CKIT percent inhibition.

In the next assay the target is T3, PDGFRb (Homo sapiens, UniProt P09619).
T3 construct: The kinase domain of PDGFRβ was assayed in 50 mM Hepes; purchased Invitrogen P3082
Description: PDGFRb kinase in vitro biochemical assay (alphascreen). The note with it: tested at about 1 μM; read-out: PDGF RK BETA percent inhibition.

Assay [2] concerns MNFS60 (murine AML cells). Description: Cell viability assay in MCSF dependent MNFS60 cells (Cell Titer Glo). It counts as cell-based. To be noted: Mus musculus; tested at about 1 μM; MCSF 10 ng/mL, 72 hrs; read-out: CPEC50 MNFS60MCSF percent inhibition. In outline:
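MNFS60 cells, 5,000 per well in RPMI-1640/10% FBS, grown with 10 ng/mL MCSF and 3-fold compound dilutions for 72 h at 37 °C. Viable cells measured by CellTiter-Glo luminescence, triplicates; EC50 fitted, with MCSF-free wells as 100% inhibition.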
On the technique in general: In ATP-based viability assays light output follows the ATP content of the culture.

Assay [3] concerns the target T4, full-length human CSF-1R receptor (Homo sapiens, UniProt P07333).
T4 construct: transfected with the full-length human CSF-1R receptor cloned in house; expressed in transfected cells; host or cells: HEK293H (Invitrogen Cat. #11631017)
Description: In vitro inhibition of CSF-1R receptor tyrosine phosphorylation in transfected HEK293H cells. It counts as cell-based. To be noted: HEK293-H, tested at about 1 μM, 50 ng/mL MCSF, read-out: PCSF1R percent inhibition. As to the method: To test the inhibition of CSF-1R receptor tyrosine phosphorylation, HEK293H purchased from Invitrogen Cat. #11631017 cells transfected with the full-length human CSF-1R receptor cloned in house into mammalian episomal transfection vector were incubated for 1 h with serial dilutions of compounds starting at 10 μM with 3 fold dilutions and then stimulated for 8 min with 50 ng/mL MCSF. After the supernatant was removed, the cells were lysed on ice with lysis buffer (150 mM NaCl, 20 mM Tris, pH 7.5, 1 mM EDTA, 1 mM EGTA, 1% Triton X-100 and NaF, protease and phosphatase inhibitors) and then shaken for 15-20 min at 4° C. The lysate was then transferred to total CSF-1R antibody coated 96-well plates that had already been blocked with 3% Blocker A from Mesoscale discovery (MSD) for 2 hours and washed afterwards. Lysates were incubated overnight at 4° C. and the plates were then washed 4× with MSD Tris Wash Buffer. The SULFO-TAG anti-pTyr antibody from MSD was diluted to 20 nM final in 1% Blocker A (MSD) solution and added to the washed plates and incubated for 1.5-2 h before addition of read buffer (MSD). The plates were read on the Sector 6000 instrument (MSD). Raw data was imported in Abase and EC50s calculated with XL-fit data analysis software.

Our source for the inhibition values is patent US8293769B2, “CSF-1R inhibitors, compositions, and methods of use” (Novartis AG, priority 2008, dated 2012).

By inhibition is commonly meant the drop in the measured response relative to a control, in per cent.

T4 sequence (P07333 20-972): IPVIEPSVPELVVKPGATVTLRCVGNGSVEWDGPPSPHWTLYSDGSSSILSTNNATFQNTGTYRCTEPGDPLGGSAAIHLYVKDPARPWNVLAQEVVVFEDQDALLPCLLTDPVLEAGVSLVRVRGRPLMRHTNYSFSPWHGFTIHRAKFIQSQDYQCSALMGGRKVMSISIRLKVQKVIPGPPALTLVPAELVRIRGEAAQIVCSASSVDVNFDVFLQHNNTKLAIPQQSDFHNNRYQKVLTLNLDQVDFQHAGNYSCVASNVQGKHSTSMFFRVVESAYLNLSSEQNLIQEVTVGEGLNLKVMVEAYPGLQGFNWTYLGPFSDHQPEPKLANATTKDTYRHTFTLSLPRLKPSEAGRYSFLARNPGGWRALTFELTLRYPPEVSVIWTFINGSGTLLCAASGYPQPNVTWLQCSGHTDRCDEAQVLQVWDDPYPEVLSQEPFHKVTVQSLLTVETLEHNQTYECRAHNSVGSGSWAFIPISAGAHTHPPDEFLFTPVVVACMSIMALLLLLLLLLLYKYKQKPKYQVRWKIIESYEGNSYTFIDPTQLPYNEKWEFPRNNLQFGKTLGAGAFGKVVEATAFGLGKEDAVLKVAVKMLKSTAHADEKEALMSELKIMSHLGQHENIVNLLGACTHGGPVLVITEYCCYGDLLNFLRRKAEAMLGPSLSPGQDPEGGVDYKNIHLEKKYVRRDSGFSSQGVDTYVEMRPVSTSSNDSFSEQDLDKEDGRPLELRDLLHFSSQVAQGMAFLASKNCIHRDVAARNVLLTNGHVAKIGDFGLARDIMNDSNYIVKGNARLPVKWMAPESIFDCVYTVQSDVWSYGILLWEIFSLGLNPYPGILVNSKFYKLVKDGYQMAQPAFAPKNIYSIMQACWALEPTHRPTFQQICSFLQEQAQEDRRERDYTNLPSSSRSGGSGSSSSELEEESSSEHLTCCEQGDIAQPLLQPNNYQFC
T2 sequence (P10721 589-937 limits assumed): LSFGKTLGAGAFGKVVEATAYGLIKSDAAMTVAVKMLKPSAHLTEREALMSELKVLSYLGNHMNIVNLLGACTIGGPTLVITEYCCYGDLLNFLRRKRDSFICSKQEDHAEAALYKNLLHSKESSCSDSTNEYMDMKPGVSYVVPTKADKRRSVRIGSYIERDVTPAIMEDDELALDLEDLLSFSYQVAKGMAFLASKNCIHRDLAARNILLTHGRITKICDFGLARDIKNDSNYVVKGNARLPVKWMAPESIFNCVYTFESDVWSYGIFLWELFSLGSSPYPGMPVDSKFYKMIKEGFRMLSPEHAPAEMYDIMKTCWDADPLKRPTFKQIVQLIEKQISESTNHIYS
T3 sequence (P09619 600-962 limits assumed): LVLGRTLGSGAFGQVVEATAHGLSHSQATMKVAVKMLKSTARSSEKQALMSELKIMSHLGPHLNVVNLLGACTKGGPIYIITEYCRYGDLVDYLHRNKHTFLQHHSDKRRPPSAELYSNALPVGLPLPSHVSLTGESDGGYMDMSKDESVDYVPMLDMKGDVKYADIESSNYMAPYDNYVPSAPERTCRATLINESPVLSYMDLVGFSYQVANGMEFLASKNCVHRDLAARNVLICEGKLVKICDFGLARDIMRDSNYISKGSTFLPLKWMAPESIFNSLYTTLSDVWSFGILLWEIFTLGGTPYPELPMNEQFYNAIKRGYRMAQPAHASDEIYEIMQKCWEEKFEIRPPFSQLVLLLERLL

`O[C@@H]1CCCC[C@H]1Nc1nc2ccc(Oc3ccnc(-c4cccnc4)n3)cc2s1` [Compound 27, (1R,2R)-2-(6-(2-(pyridin-3-yl)pyrimidin-4-yloxy)benzo [d]thiazol-2-ylamino) cyclohexanol]: the inhibition at 1 µM in assay [1] is 100%; at cKIT, 20%; on PDGFRb, 8%; in assay [2], 54%; in assay [3] it was 78%.
In the same order, the values of `O[C@@H]1CCCC[C@H]1Nc1nc2ccc(Oc3ccnc(-c4ccncc4)n3)cc2s1` [Compound 28, (1R,2R)-2-(6-(2-(pyridin-4-yl)pyrimidin-4-yloxy)benzo [d]thiazol-2-ylamino) cyclohexanol] are 100%, 18%, 25%, 67% and 88%.
The corresponding values for `C[C@H](Nc1nc2ccc(Oc3ccnc(-c4cccnc4)n3)cc2s1)C1CCCCC1` [Compound 31, (S)-N-(1-cyclohexylethyl)-6-(2-(pyridin-3-yl)pyrimidin-4-yloxy)benzo[d] thiazol-2-amine] are 100%, 29%, 6%, 58% and 59%.
In the same order, the values of `C[C@H](Nc1nc2ccc(Oc3ccnc(-c4ccncc4)n3)cc2s1)C1CCCCC1` [Compound 32, (S)-N-(1-cyclohexylethyl)-6-(2-(pyridin-4-yl)pyrimidin-4-yloxy)benzo[d] thiazol-2-amine] are 100%, 30%, 14%, 58% and 70%.
As for `O[C@@H]1CCCC[C@H]1Nc1nc2ccc(Oc3cncc(Br)c3)cc2s1` [Compound 45, (1R,2R)-2-(6-(5-bromopyridin-3-yloxy)benzo[d]thiazol-2-ylamino)cyclohexanol], the inhibition at 1 µM was found to be 100% in assay [1]; 60% on cKIT; 5% at PDGFRb; 96% in assay [2]; 93% in assay [3].
For the molecule `Cn1nccc1-c1cncc(Oc2ccc3nc(N[C@@H]4CCCC[C@H]4O)sc3c2)c1` [Compound 56, (1R,2R)-2-(6-(5-(1-methyl-1H-pyrazol-5-yl)pyridin-3-yloxy)benzo[d]thiazol-2-ylamino)cyclohexanol], the inhibition at 1 µM is 100% in assay [1]; 43% at cKIT; 10% on PDGFRb; 93% in assay [2]; 96% in assay [3].
In the same order, the values of `O[C@@H]1CCCC[C@H]1Nc1nc2ccc(Oc3cncc(-c4cccnc4)c3)cc2s1` [Compound 57, (1R,2R)-2-(6-(3,3′-bipyridin-5-yloxy)benzo[d]thiazol-2-ylamino)cyclohexanol] are 100%, 45%, 0%, 96% and 96%.
The corresponding values for `O[C@@H]1CCCC[C@H]1Nc1nc2ccc(Oc3cncc(-c4ccncc4)c3)cc2s1` [Compound 60, (1R,2R)-2-(6-(3,4′-bipyridin-5-yloxy)benzo[d]thiazol-2-ylamino)cyclohexanol] are 100%, 52%, 3%, 97% and 95%.
The corresponding values for `Nc1ncc(-c2cncc(Oc3ccc4nc(N[C@@H]5CCCC[C@H]5O)sc4c3)c2)cn1` [Compound 63, (1R,2R)-2-(6-(5-(2-aminopyrimidin-5-yl)pyridin-3-yloxy)benzo[d]thiazol-2-ylamino) cyclohexanol] are 100%, 35%, 14%, 61% and 80%.
For the molecule `O[C@@H]1CCCC[C@H]1Nc1nc2ccc(Oc3cncc(-c4ccc(F)cc4)c3)cc2s1` [Compound 64, (1R,2R)-2-(6-(5-(4-fluorophenyl)pyridin-3-yloxy)benzo [d]thiazol-2-ylamino) cyclohexanol], the inhibition at 1 µM turned out to be 100% in assay [1]; 54% at cKIT; 8% on PDGFRb; 100% in assay [2]; 95% in assay [3].
For the molecule `Cn1ccnc1-c1cncc(Oc2ccc3nc(N[C@@H]4CCCC[C@H]4O)sc3c2)c1` [Compound 66, (1R,2R)-2-(6-(5-(1-methyl-1H-imidazol-2-yl)pyridin-3-yloxy)benzo[d]thiazol-2-ylamino) cyclohexanol], the inhibition at 1 µM in assay [1] worked out at 100%; on cKIT it was 40%; on PDGFRb, 9%; in assay [2] it was 90%; in assay [3], 96%.
Take `Cn1cncc1-c1cncc(Oc2ccc3nc(N[C@@H]4CCCC[C@H]4O)sc3c2)c1` [Compound 68, (1R,2R)-2-(6-(5-(1-methyl-1H-imidazol-5-yl)pyridin-3-yloxy)benzo[d]thiazol-2-ylamino) cyclohexanol]: the inhibition at 1 µM amounted to 100% in assay [1]; 33% on cKIT; 21% at PDGFRb; 85% in assay [2]; 93% in assay [3].
The corresponding values for `CC(C)(C)OC(=O)N1CC=C(c2cncc(Oc3ccc4nc(N[C@@H]5CCCC[C@H]5O)sc4c3)c2)CC1` [Compound 79] are 100%, 48%, 9%, 93% and 93%.
In the same order, the values of `O[C@@H]1CCCC[C@H]1Nc1nc2ccc(Oc3cncc(-c4cn[nH]c4)n3)cc2s1` [Compound 92, (1R,2R)-2-(6-(6-(1H-pyrazol-4-yl)pyrazin-2-yloxy)benzo [d]thiazol-2-ylamino) cyclohexanol] are 100%, 27%, 23%, 70% and 93%.
`CN1CCN(c2ccc(-c3cc(Oc4ccc5nc(N[C@@H]6CCCC[C@H]6O)sc5c4)cnc3Cl)cn2)CC1` [Compound 103, (1R,2R)-2-(6-(2-chloro-6′-(4-methylpiperazin-1-yl)-3,3′-bipyridin-5-yloxy)benzo[d]thiazol-2-ylamino)cyclohexanol]: the inhibition at 1 µM in assay [1] is 100%; on cKIT, 14%; at PDGFRb, 9%; in assay [2], 35%.
In the same order, the values of `O[C@@H]1CCCC[C@H]1Nc1nc2ccc(Oc3cccnc3)cc2s1` [Compound 110, (1R,2R)-2-(6-(pyridin-3-yloxy)benzo[d]thiazol-2-ylamino)cyclohexanol] are 100%, 10%, 14% and 54%.
